The text below walks through data of US8361998B2, “Compounds and their use as IKACh blockers” (AstraZeneca AB, priority 2010, dated 2013).

pIC50: −log10 of the molar value.

By pIC50 is commonly meant the IC50 on a negative log10 scale, so that one unit is a factor of ten.

For the first test, the target named is T1, human cardiac ion channel proteins hKir3.1/Kir3.4 (Homo sapiens, UniProt P48544+P48549).
T1 construct: expressed in transfected cells
T1 sequence (P48549 1-501): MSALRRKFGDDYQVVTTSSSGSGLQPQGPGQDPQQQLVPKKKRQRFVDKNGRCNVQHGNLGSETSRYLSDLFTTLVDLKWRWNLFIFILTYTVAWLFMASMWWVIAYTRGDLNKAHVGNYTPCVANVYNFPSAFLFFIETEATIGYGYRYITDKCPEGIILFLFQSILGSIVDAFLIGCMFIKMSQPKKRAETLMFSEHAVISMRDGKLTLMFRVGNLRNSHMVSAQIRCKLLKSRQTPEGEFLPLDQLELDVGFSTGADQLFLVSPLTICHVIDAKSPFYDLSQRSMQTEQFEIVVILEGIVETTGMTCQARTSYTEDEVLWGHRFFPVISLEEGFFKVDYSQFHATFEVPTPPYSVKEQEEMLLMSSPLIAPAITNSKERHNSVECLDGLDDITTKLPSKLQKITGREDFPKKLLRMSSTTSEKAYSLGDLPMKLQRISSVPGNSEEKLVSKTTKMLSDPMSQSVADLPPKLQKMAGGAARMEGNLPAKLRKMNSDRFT
T1 sequence (P48544 1-419): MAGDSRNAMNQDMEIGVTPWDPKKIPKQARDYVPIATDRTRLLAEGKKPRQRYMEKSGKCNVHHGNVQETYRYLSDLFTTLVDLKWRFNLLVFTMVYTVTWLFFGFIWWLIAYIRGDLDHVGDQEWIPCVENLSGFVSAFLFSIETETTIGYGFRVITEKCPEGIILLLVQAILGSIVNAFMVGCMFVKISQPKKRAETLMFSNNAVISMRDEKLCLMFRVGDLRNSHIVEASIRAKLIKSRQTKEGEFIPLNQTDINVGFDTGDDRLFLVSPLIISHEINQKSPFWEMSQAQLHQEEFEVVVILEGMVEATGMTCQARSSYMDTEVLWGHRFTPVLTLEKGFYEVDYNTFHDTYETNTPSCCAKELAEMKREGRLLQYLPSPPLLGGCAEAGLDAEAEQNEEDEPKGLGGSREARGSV
As to the kind of experiment: Atomic Absorption Screening (AAS) Rb efflux assay of hKir3.1/Kir3.4 block, carbachol/high K+ stimulated, 10-pt or 7-pt CR. The format is cell-based. The conditions noted are these: 7-pt CR (0.037 to 27 μmol/L), AAS Rb efflux, CHO-K1 cells expressing hKir3.1/Kir3.4; mean of >3 replicates; read-out: IKACh IC50 7-pt CR, AAS. In a few lines: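 Mean IC50s derive from >4 replicates over 0.003–67 μmol/L (10-point) or >3 replicates over 0.037–27 μmol/L (7-point), both threefold steps. Rb-loaded (3 h, 37° C) CHO-K1 cells stably expressing hKir3.1/Kir3.4 saw compound for 5 min at RT before 10-min channel opening by carbachol 10 μM/KCl 20 mM final. Released Rb was quantified by atomic absorption.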
Consider `CC(C)[C@@H](CN1CC[C@H](O)C1)N(C)C(=O)c1ccc(F)cc1Cl` [Example 10.1, (3S)-1-((S)-2-(2-Chloro-4-fluoro-N-methylbenzamido)-3-methylbutyl)-3-hydroxypyrrolidinium 2,3-dihydroxysuccinate], for which the pIC50 is 5.43.

Consider `CC(C)[C@@H](CN1CC[C@H](O)C1)N(C)C(=O)c1cccc(Cl)c1F` [Example 16.39, 3-Chloro-2-fluoro-N-[(1S)-1-{[(3S)-3-hydroxypyrrolidin-1-yl]methyl}-2-methylpropyl]-N-methylbenzamide], for which the pIC50 is 5.41.

As to `CC(C)[C@@H](CN1CCCC1)N(C)C(=O)c1cc(F)cc(F)c1F` [Example 16.9, (S)-2,3,5-Trifluoro-N-methyl-N-(3-methyl-1-(pyrrolidin-1-yl)butan-2-yl)benzamide], the pIC50 was 5.41.

Turning to `CC(C)[C@H](CN1CCCC1)N(C)C(=O)c1ccc(Cl)c(Cl)c1` [Example 16.56, (R)-3,4-Dichloro-N-methyl-N-(3-methyl-1-(pyrrolidin-1-yl)butan-2-yl)benzamide], the pIC50 was 5.44.

With `CC(C)[C@@H](CN1CCCCC1)N(C)C(=O)c1ccc(Cl)cc1` [Example 16.34, 4-Chloro-N-methyl-N-[(1S)-2-methyl-1-(piperidin-1-ylmethyl)propyl]benzamide], the pIC50 was 5.37.

Still in this test, the particulars now being: 10-pt CR (0.003 to 67 μmol/L), AAS Rb efflux, CHO-K1 cells expressing hKir3.1/Kir3.4; mean of >4 replicates; read-out: IKACh IC50 10-pt CR, AAS.
For the compound `CC(C)[C@@H](CN1CC[C@H](O)C1)N(C)C(=O)c1ccc(F)cc1Cl` [Example 10.1, (3S)-1-((S)-2-(2-Chloro-4-fluoro-N-methylbenzamido)-3-methylbutyl)-3-hydroxypyrrolidinium 2,3-dihydroxysuccinate], the pIC50 was 5.21.

On to `COc1ccc(C(=O)N(C)C(CN2CC(O)C2)C2CCCC2)cc1` (single isomer, unassigned) [32.2, isomer 1], for which the pIC50 was 6.24.

On to `CC(C)[C@@H](CN1CCC1)N(C)C(=O)c1cccc(C(F)(F)F)c1` [Example 1.15, (S)-N-(1-(Azetidin-1-yl)-3-methylbutan-2-yl)-N-methyl-3-(trifluoromethyl)benzamide], for which the pIC50 was 5.64.

Turning to `CCCC[C@@H](CN1CC(O)C1)N(C)C(=O)c1ccc(O)cc1` [Example 33.6, 4-Hydroxy-N-[(2S)-1-(3-hydroxyazetidin-1-yl)hexan-2-yl]-N-methylbenzamide], the pIC50 was 4.96.

As to `Cc1cc(C(=O)N(C)[C@H](CN2C[C@H](O)[C@@H](O)C2)C(C)C)ccc1F` [Example 8.12, N-((S)-1-((3S,4S)-3,4-Dihydroxypyrrolidin-1-yl)-3-methylbutan-2-yl)-4-fluoro-N,3-dimethylbenzamide], the pIC50 is 5.37.

As to `CN(C(=O)c1ccc(F)c(F)c1)[C@@H](CN1CC(O)C1)C1CCC1` [Example 35.7, N-[(1R)-1-Cyclobutyl-2-(3-hydroxyazetidin-1-yl)ethyl]-3,4-difluoro-N-methylbenzamide], the pIC50 is 5.41.

For `Cc1cccc(C(=O)N(C)[C@H](CN2CCC2)C(C)C)c1` [Example 1.16, (S)-N-(1-(Azetidin-1-yl)-3-methylbutan-2-yl)-N,3-dimethyl-benzamide], the pIC50 is 4.77.

Take `CO[C@H](C)[C@@H](CN1CCCC1)N(C)C(=O)c1ccc(F)c(C)c1` [Example 3.1, 4-Fluoro-N-((2R,3R)-3-methoxy-1-(pyrrolidin-1-yl)butan-2-yl)-N,3-dimethylbenzamide]: the pIC50 is 5.13.

With `CC(C)[C@@H](CN1CCCC1)N(C)C(=O)c1cc(F)cc(F)c1F` [Example 16.9, (S)-2,3,5-Trifluoro-N-methyl-N-(3-methyl-1-(pyrrolidin-1-yl)butan-2-yl)benzamide], the negative-log IC50 (pIC50) was 4.85.

With `CC[C@H](C)C(CN1CC(O)C1)N(C)C(=O)c1ccc(F)c(F)c1` (stereo in doubt) [Example 29.1, 3,4-Difluoro-N-((2S,3S)-1-(3-hydroxyazetidin-1-yl)-3-methylpentan-2-yl)-N-methylbenzamide], the pIC50 was 5.03.

In the case of `CC[C@@H](CN1CC(O)C1)N(C)C(=O)c1ccc(Br)cc1` [Example 42, (S)-4-Bromo-N-(1-(3-hydroxyazetidin-1-yl)butan-2-yl)-N-methylbenzamide], the pIC50 was 5.40.

For `CN(C(=O)c1ccc(Br)cc1)C(C)(C)CN1CCCC1` [Example 16.7, 4-Bromo-N-methyl-N-(2-methyl-1-(pyrrolidin-1-yl)propan-2-yl)benzamide], the pIC50 was 4.85.

Turning to `CC(C)[C@@H](CN1C[C@H](O)[C@@H](O)C1)N(C)C(=O)c1ccc(Cl)c(F)c1` [Example 8.15, 4-Chloro-N-((S)-1-((3S,4S)-3,4-dihydroxypyrrolidin-1-yl)-3-methylbutan-2-yl)-3-fluoro-N-methylbenzamide], the negative logarithm of the IC50 (pIC50) was 5.35.

With `CCC[C@@H](CN1CC(O)C1)N(C)C(=O)c1cccc(C(F)(F)F)c1` [Example 8.8, (S)-N-(1-(3-Hydroxyazetidin-1-yl)pentan-2-yl)-N-methyl-3-(tri-fluoromethyl)benzamide], the pIC50 is 5.62.

For `CO[C@H](C)[C@@H](CN1CCCC1)N(C)C(=O)c1ccc(F)c(Cl)c1` [Example 3.3, 3-Chloro-4-fluoro-N-((2R,3R)-3-methoxy-1-(pyrrolidin-1-yl)butan-2-yl)-N-methylbenzamide], the pIC50 is 5.14.

With `CO[C@H](C)[C@@H](CN1CCCC1)N(C)C(=O)c1ccc(Br)cc1` [Example 3.4, 4-Bromo-N-((2R,3R)-3-methoxy-1-(pyrrolidin-1-yl)butan-2-yl)-N-methylbenzamide], the pIC50 was 5.66.

`COc1cc(C(=O)N(C)[C@H](CN2CCC(OC)CC2)C(C)C)ccc1C` [Example 3.11, (S)-3-Methoxy-N-(1-(4-methoxypiperidin-1-yl)-3-methylbutan-2-yl)-N,4-dimethylbenzamide]: the pIC50 is 5.14.

`CC[C@H](C)[C@@H](CN1CC(O)C1)N(C)C(=O)c1cc(C)ccc1OC` [Example 29.8, N-((2S,3S)-1-(3-Hydroxyazetidin-1-yl)-3-methylpentan-2-yl)-2-methoxy-N,5-dimethylbenzamide]: the pIC50 is 4.96.

On to `CCC[C@@H](CN1CC(O)C1)N(C(=O)c1ccc(Cl)cc1)C(C)C` [Example 34.1, 4-Chloro-N-[(2S)-1-(3-hydroxyazetidin-1-yl)pentan-2-yl]-N-(propan-2-yl)benzamide], for which the pIC50 was 5.48.

In the case of `CC(C)[C@@H](CN1CC(F)C1)N(C)C(=O)c1ccc(F)c(C(F)(F)F)c1` [Example 1.9, (S)-4-Fluoro-N-(1-(3-fluoroazetidin-1-yl)-3-methyl-butan-2-yl)-N-methyl-3-(trifluoromethyl)benzamide], the pIC50 was 5.44.

Staying with this test, now noted: printed as IC50 >67 μM in the 10-pt CR assay or IC50 >27 μM in the 7-pt CR assay; assay format per compound not stated; read-out: IC50.
For `Cc1cc(C(=O)N(C)[C@H](CN2CCC(F)(F)C2)C(C)C)ccc1F` [(S)-N-(1-(3,3-Difluoropyrrolidin-1-yl)-3-methylbutan-2-yl)-4-fluoro-N,3-dimethylbenzamide], the pIC50 is less than 4.57.

On to `CC(C)[C@@H](CN1CC(F)(CO)C1)N(C)C(=O)c1ccc(F)c(F)c1` [(S)-3,4-Difluoro-N-(1-(3-fluoro-3-(hydroxymethyl)azetidin-1-yl)-3-methylbutan-2-yl)-N-methylbenzamide], for which the pIC50 was less than 4.57.

With `CC(C)[C@@H](CN1CCCC1)N(C)C(=O)c1ccccc1` [N-Methyl-N-[(1S)-2-methyl-1-(pyrrolidin-1-ylmethyl)propyl]benzamide], the pIC50 was less than 4.57.

As for `CC(C)[C@@H](CCN1CCCC1)N(C)C(=O)c1ccccc1Cl` [2-Chloro-N-methyl-N-[(1R)-2-methyl-1-(2-pyrrolidin-1-ylethyl)propyl]benzamide], the pIC50 was less than 4.57.
